T/C data for 24 compounds are collected here from PubChem BioAssay AID296 (DTP/NCI, 2004).

For the experiment, the system named is MX-1 breast xenograft, nude mice, tumor weight T/C. The experiment in a line: NCI In Vivo Anticancer Drug Screen. Data for tumor model Human Mammary Carcinoma MX-1 Xenograft (intrarenal inoculation) in NU/NU Swiss (nude) mice. To be noted: endpoint: mean tumor weight change, higher = larger tumour. Put shortly:
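Read-out: treated (T) over vehicle control (C) ratio of survival or tumor size. Dosing in animals carrying the transplanted tumor.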
In general terms: A xenograft is tissue or cells of one species grown in another, often human tumour cells in immunodeficient mice.

The mark [1] stands for this setting: dose: 100.0 mg/kg/injection, schedule: Q04DX003 (sc), vehicle: Klucel (hydroxypropylcellulose) (HPC).
Where [2] appears, read: dose: 600.0 mg/kg/injection, schedule: Q04DX003 (sc), vehicle: saline with Tween-80.
Setting [3] is: dose: 2400.0 mg/kg/injection, schedule: Q04DX003 (sc), vehicle: saline with Tween-80.
Where [4] appears, read: dose: 300.0 mg/kg/injection, schedule: Q04DX003 (sc), vehicle: Klucel (hydroxypropylcellulose) (HPC).
The mark [5] stands for this setting: dose: 600.0 mg/kg/injection, schedule: Q04DX003 (sc), vehicle: Klucel (hydroxypropylcellulose) (HPC).

Values joined by “and” are separate entries in the source; they are usually repeats but may differ in a detail not shown here. Identical values can stand only once. Inconclusive results are not listed. *1 amine or outer side, *2 acyl side, *3 side chain or, on linkers, in order; H or OH if unused. Where a SMILES comes first, the peptide text is derived from it. Bridges are numbered along the chain shown (N, C = ends). Roman numbers before positions name the chains, in order. [ ]: non-standard residue; d: D form. The star is where a group is joined. Quinoxaline2carbonyl = O=C(c1cnc2ccccc2n1)*; X2 = CCC(=O)CC1CC(C)CC(C(=O)[*:2])N1[*:1]; NMeV = CN[CH](C(=O)O)C(C)C; NMeC = CN[CH](CS)C(=O)O; X1 = CCCCCCCCC(C)C(=O)*; Aib = CC(C)(N)C(=O)O; X3 = CC(CN(C)CCO)N*

For the compound `CCNC(=O)[B-][N+](C)(C)C`, the T/C under setting [1] is 115 % of control; the T/C (dose: 200.0 mg/kg/injection, schedule: Q04DX003 (sc), vehicle: Klucel (hydroxypropylcellulose) (HPC)) was 92 % of control; the T/C (dose: 400.0 mg/kg/injection, schedule: Q04DX003 (sc), vehicle: Klucel (hydroxypropylcellulose) (HPC)) is 74 % of control.

`CCOC(=O)C(CC(C)C)NC(=O)C(N)Cc1ccc(N(CCCl)CCCl)cc1` (configuration not stated): the T/C (dose: 60.0 mg/kg/injection, schedule: Q04DX003 (sc), vehicle: water) was -100 % of control.

For the compound `CC(C)(C)N1CC1CNC(=O)C(=O)NCC1CN1C(C)(C)C` (configuration not stated), under “dose: 50.0 mg/kg/injection, schedule: Q04DX003 (sc), vehicle: saline with Tween-80”, the T/C is -41 % of control and -29 % of control.

In the case of `CN(C)N=Nc1ccccc1`, the T/C under setting [1] is 36 % of control.

As to `CC1NC(=O)C(NC(=O)c2cnc3ccccc3n2)COC(=O)C(C(C)C)N(C)C(=O)C2CSSCC(C(=O)N(C)C(C(C)C)C(=O)OCC(NC(=O)c3cnc4ccccc4n3)C(=O)NC(C)C(=O)N2C)N(C)C1=O` (configuration not stated) (I: Quinoxaline2carbonyl-SA[NMeC][NMeV] / II: Quinoxaline2carbonyl-SA[NMeC][NMeV]; ester I:1-II:C, I:C-II:1; disulfide I:3-II:3; configuration not given here), the T/C is, setting by setting: (dose: 100.0 micrograms/kg/injection, schedule: Q04DX003 (sc), vehicle: Klucel (hydroxypropylcellulose) (HPC)) 63 % of control; (dose: 200.0 micrograms/kg/injection, schedule: Q04DX003 (sc), vehicle: Klucel (hydroxypropylcellulose) (HPC)) 62 % of control; (dose: 400.0 micrograms/kg/injection, schedule: Q04DX003 (sc), vehicle: Klucel (hydroxypropylcellulose) (HPC)) 73 % of control; (dose: 800.0 micrograms/kg/injection, schedule: Q04DX003 (sc), vehicle: Klucel (hydroxypropylcellulose) (HPC)) 46 % of control.

For `ClCCCN1CCN(CCCCl)CC1`, the T/C was 113 % of control (dose: 75.0 mg/kg/injection, schedule: Q04DX003 (sc), vehicle: saline + alcohol) and 28 % of control (dose: 150.0 mg/kg/injection, schedule: Q04DX003 (sc), vehicle: saline + alcohol).

Turning to `CCCCCCCCC(C)C(=O)N1CCCC1C(=O)N1C(CC(=O)CC)CC(C)CC1C(=O)NC(C)C(=O)NC(C)(C)C(=O)NC(C)(C)C(=O)NC(C(=O)NC(C)C(=O)NC(C)(C)C(=O)NC(C)(C)C(=O)NC(C)CN(C)CCO)C(C)CC` (configuration not stated) (X1-P[X2]A[Aib][Aib]IA[Aib][Aib]-X3; configuration not given here), the T/C was 105 % of control (dose: 1.25 mg/kg/injection, schedule: Q04DX003 (sc), vehicle: Klucel (hydroxypropylcellulose) (HPC)) and 113 % of control (dose: 2.5 mg/kg/injection, schedule: Q04DX003 (sc), vehicle: Klucel (hydroxypropylcellulose) (HPC)).

Take `O=NNc1ccc(Cl)cn1`: the T/C was 24 % of control (dose: 18.7 mg/kg/injection, schedule: Q04DX003 (ip), vehicle: water) and -51 % of control (dose: 37.5 mg/kg/injection, schedule: Q04DX003 (ip), vehicle: water).

For `COc1cccc2c1C(=O)c1c(O)c3c(c(O)c1C2=O)C[C@@](O)(C(C)=O)C[C@@H]3OC1CC(N)C(O)C(C)O1` (some centres not stated), the T/C is, setting by setting: (dose: 0.5 mg/kg/injection, schedule: Q01DX010 (sc), vehicle: saline) 161 % of control; (dose: 4.0 mg/kg/injection, schedule: Q01DX010 (sc), vehicle: saline) 78 % of control and 89 % of control.

For `C1CN2CCC1CC2`, the T/C by setting is: (dose: 4.69 mg/kg/injection, schedule: Q04DX003 (sc), vehicle: saline with Tween-80) 112 % of control; (dose: 9.38 mg/kg/injection, schedule: Q04DX003 (sc), vehicle: saline with Tween-80) 93 % of control.

Take `CCOc1cc2c(cc1C(C)c1ccc(OC)cc1)OCO2` (configuration not stated): the T/C (dose: 150.0 mg/kg/injection, schedule: Q04DX003 (sc), vehicle: distilled water + alcohol) was 43 % of control; the T/C (dose: 300.0 mg/kg/injection, schedule: Q04DX003 (sc), vehicle: distilled water + alcohol) is 31 % of control; the T/C (dose: 600.0 mg/kg/injection, schedule: Q04DX003 (sc), vehicle: distilled water + alcohol) was 19 % of control; the T/C (dose: 1200.0 mg/kg/injection, schedule: Q04DX003 (sc), vehicle: distilled water + alcohol) is 52 % of control.

Take `O=C1SC(c2ccccc2)=S=C1c1ccccc1`: the T/C (dose: 300.0 mg/kg/injection, schedule: Q04DX003 (sc), vehicle: saline with Tween-80) was 102 % of control; the T/C under setting [2] is 78 % of control; the T/C (dose: 1200.0 mg/kg/injection, schedule: Q04DX003 (sc), vehicle: saline with Tween-80) is 109 % of control; the T/C under setting [3] is 48 % of control.

Take `CC1(O)C=CC(=O)C=C1`: the T/C reads like this: (dose: 25.0 mg/kg/injection, schedule: Q04DX003 (ip), vehicle: water) 109 % of control; (dose: 50.0 mg/kg/injection, schedule: Q04DX003 (ip), vehicle: water) 89 % of control.

With `CCN(CC)CCCNc1nccc2c(C)c3[nH]c4ccncc4c3cc12`, the T/C by setting is: (dose: 5.0 mg/kg/injection, schedule: Q01DX010 (sc), vehicle: other) 166 % of control; (dose: 10.0 mg/kg/injection, schedule: Q01DX010 (sc), vehicle: other) 88 % of control.

Turning to `C[C@]12CCC(=O)C=C1CC[C@@H]1[C@@H]2[C@@H](O)C[C@@]2(C)[C@H]1CC[C@]2(O)C(=O)CO`, the T/C reads like this: (dose: 75.0 mg/kg/injection, schedule: Q04DX003 (sc), vehicle: Klucel (hydroxypropylcellulose) (HPC)) 117 % of control; (dose: 150.0 mg/kg/injection, schedule: Q04DX003 (sc), vehicle: Klucel (hydroxypropylcellulose) (HPC)) 45 % of control; under setting [4], 33 % of control; under setting [5], 33 % of control.

With `CC(C)[C@](O)(C(=O)OCC1=CCN2CC[C@@H](O)[C@@H]12)[C@H](C)O`, the T/C (dose: 300.0 mg/kg/injection, schedule: Q04DX003 (sc), vehicle: water) is 56 % of control; the T/C (dose: 600.0 mg/kg/injection, schedule: Q04DX003 (sc), vehicle: water) was 65 % of control; the T/C (dose: 1200.0 mg/kg/injection, schedule: Q04DX003 (sc), vehicle: water) was 53 % of control; the T/C (dose: 2400.0 mg/kg/injection, schedule: Q04DX003 (sc), vehicle: water) was 51 % of control.

Take `NC(=O)c1cn(C2OC(CO)C(O)C2O)c2ncnc(N)c12` (configuration not stated): the T/C is 77 % of control (dose: 1.5 mg/kg/injection, schedule: Q04DX003 (sc), vehicle: saline); 61 % of control (dose: 3.0 mg/kg/injection, schedule: Q04DX003 (sc), vehicle: saline); 40 % of control (dose: 6.0 mg/kg/injection, schedule: Q04DX003 (sc), vehicle: saline).

As to `COc1ccc(-c2csc(=[N+]3CCCCC3)s2)cc1`, the T/C (dose: 3.12 mg/kg/injection, schedule: Q04DX003 (sc), vehicle: water) is 89 % of control; the T/C (dose: 6.25 mg/kg/injection, schedule: Q04DX003 (sc), vehicle: water) is 85 % of control; the T/C (dose: 12.5 mg/kg/injection, schedule: Q04DX003 (sc), vehicle: water) is 89 % of control.

In the case of `O=C(O)c1ccc(C(=O)O)c(C(=O)O)c1.[NH-]C1CCCCC1[NH-].[Pt+2]`, the T/C (dose: 3.12 mg/kg/injection, schedule: Q01DX010 (sc), vehicle: sodium bicarbonate) is 10 % of control and 27 % of control; the T/C (dose: 6.25 mg/kg/injection, schedule: Q01DX010 (sc), vehicle: sodium bicarbonate) was 1 % of control and 2 % of control.

`CC[N](CC)[Ge]([CH2]C)[CH2]C.CC[N](CC)[Ge]([CH2]C)[CH2]C`: the T/C was 190 % of control (dose: 12.5 mg/kg/injection, schedule: Q01DX010 (sc), vehicle: saline); 106 % of control (dose: 25.0 mg/kg/injection, schedule: Q01DX010 (sc), vehicle: saline); 106 % of control (dose: 50.0 mg/kg/injection, schedule: Q01DX010 (sc), vehicle: saline).

As for `O=C1c2cccc3cc([N+](=O)[O-])cc(c23)C(=O)N1CCN1CCCC1`, the T/C was 120 % of control (dose: 18.0 mg/kg/injection, schedule: Q04DX003 (sc), vehicle: saline with Tween-80); 96 % of control (dose: 36.0 mg/kg/injection, schedule: Q04DX003 (sc), vehicle: saline with Tween-80); 85 % of control (dose: 72.0 mg/kg/injection, schedule: Q04DX003 (sc), vehicle: saline with Tween-80).

With `BrC1c2cccc3cccc(c23)C1Br` (configuration not stated), the T/C was 202 % of control under setting [2] and 113 % of control under setting [3].

For `O=C(O)c1c2c(nc3ccccc13)Cc1ccccc1-2`, the T/C is 108 % of control (dose: 25.0 mg/kg/injection, schedule: Q01DX010 (sc), vehicle: water) and 46 % of control (dose: 200.0 mg/kg/injection, schedule: Q01DX010 (sc), vehicle: water).

Turning to `C=C[Si]12OCCN(CCO1)CCO2`, the T/C runs as follows: under setting [4], 87 % of control; under setting [5], 79 % of control; (dose: 1200.0 mg/kg/injection, schedule: Q04DX003 (sc), vehicle: Klucel (hydroxypropylcellulose) (HPC)) 106 % of control; (dose: 2400.0 mg/kg/injection, schedule: Q04DX003 (sc), vehicle: Klucel (hydroxypropylcellulose) (HPC)) 89 % of control.
